In patent US7199153B2, “Pharmaceutical composition comprising paracetamol and niflumic acid” (SmithKline Beechman, p.l.c., priority 2000, dated 2007):

Test system: P-phenyl-quinone induced abdominal constriction in DBA/2 mice
Assay: P-phenyl-quinone induced mouse abdominal constriction (MAC) assay
Assay type: in vivo
Conditions: paracetamol alone at 50 mg/kg and 150 mg/kg, po
Description: The method is based on that described by Siegmund, Cadmus and Lu in “A Method for Evaluating both Non-Narcotic and Narcotic Analgesics” Proc. Soc. Exp. Biol. Med., 95: 729–731 (1957)).
DBA/2 mice were housed 20 per cage in a temperature and humidity controlled environment on a 12:12 hour light-dark cycle for five days with food and water ad libitum before testing. […] Ten animals were randomly allocated to each drug group and experimental designs were used that allowed complete randomisation of the testing of drug groups. Drugs were suspended in 1% methylcellulose and administered 10 ml/kg po, 60 mins pre-test. Abdominal constriction was induced by i.p. injection of 10 ml/kg P-phenyl-quinone (0.025% in 5% ethanol/water) and the total number of constrictions in a twenty minute period were measured. A constriction is defined as a flattening of the abdomen with extension of the hind limbs. Testing was blind with one experimenter observing five animals. All experiments were performed in accordance with the Animals (Scientific Procedures) Act 1986 and subject to local ethical committee approval.
For each drug group, the mean % inhibition of constrictions was calculated ((1-(test/control))*100) and appropriate statistics were performed on log-transformed data to test significant differences from vehicle and, in the case of groups receiving drug combinations, each drug alone.

CC(=O)Nc1ccc(O)cc1 [Paracetamol, N-acetyl-p-aminophenol]
% inhibition of constrictions, drug alone: small but significant effect
